Experimental data: paper PMC3600310, “Phage Display Screening for Tumor Necrosis Factor-α-Binding Peptides: Detection of Inflammation in a Mouse Model of Hepatitis” (International Journal of Peptides, 2013)

Experiments:
TNF-α = TNF-α detection by biotinylated 2C and 2L peptides in liver histological sections; set-up: species or system mouse; conditions: biotinylated peptide 20 μM overnight, ABC complex/DAB, ex vivo
Description: Adult mice (n = 6) received a single i.p. injection of 20 mg/Kg of ConA [21], a lymphocyte T activator producing inflammation in mice liver.
Mice were sacrificed 2 hours after intravenous injection of ConA, and their livers were fixed for 24 h in 4% paraformaldehyde. After fixation, the liver was dehydrated by several alcohol and butanol soakings and the organ was subsequently embedded in paraffin according to standard procedures. Sections of 4-micrometer thickness were cut for histological tests.
TNF-α detection by the phage display-selected 2C and 2L peptides was carried out with the same protocol as for anti-TNF-α polyclonal antibody (see Section 2.4.2). Briefly, liver sections were incubated overnight with the biotinylated peptides (20 μM). Reactive sites were detected with the ABC complex and DAB staining.

[1] = ELISA interaction of biotinylated peptides with PFBB coated plate (no target); type: binding; conditions: free biotinylated peptide; plate coated with protein-free blocking buffer only; Kd* values could not be estimated
Description: The affinity of the selected peptides was evaluated by ELISA as for the phage clones (see Section 2.1.3). The target was immobilized overnight on a 96-well plate at 4°C before a 2-hour incubation with a protein-free blocking buffer solution (PFBB, Pierce, Aalst, Belgium) and then with a range of peptide dilutions: 10^‒3 M to 10^‒6 M. The target-bound biotinylated peptides were detected using ABC (Avidin Biotin Complex) and ABTS solutions as described above. The dissociation constant was estimated from the inflection point of the curve.

human TNF-α [2] = experiment: ELISA competition of phage clones with an anti-TNF-α antibody; type: binding; conditions: for IC50: antibody concentration that inhibits by 50% the phage-TNF-α interaction, antibody 1.3 × 10^−9 to 6.66 × 10^−7 M pre-incubated 30 min, then phage at Kd* concentration 1 h, high IC50 = strong phage binding, read-out: IC50 of the anti-TNF-α antibody against the phage clone; for IC50 Ab anti-TNF-α/Kd clone ratio: phage clones, IC50 of the anti-TNF-α antibody divided by Kd* of the clone
Description: (b) Competition Experiments with an Anti-TNF-α Antibody. Competition experiments were performed in the same manner as the K d* experiments except that clones were set in competition with an anti-TNF-α antibody (R&D Systems Inc., Abington, UK) in dilutions ranging from 1.3 × 10^−9 to 6.66 × 10^−7 M in a PBS solution. Plates were first incubated for 30 min with 50 μL/well of antibody dilutions before a one-hour incubation with 50 μL of phage solutions at the K d* concentration. The IC50 of the anti-TNF-α antibody is the antibody concentration required to inhibit by 50% the interaction between phages and TNF-α.
The objective of this test is to set up a competition between every phage clone and another ligand of the target to calculate an inhibition constant value (IC50).

human TNF-α [3] = experiment: ELISA estimation of apparent dissociation constant (Kd*) between phage clones and TNF-α; type: binding; conditions: phage clones; ELISA Kd* on BSA divided by Kd* on TNF-α
Description: (a) Estimation of the Apparent Dissociation Constant (K d*) between the Phage Clones and TNF-α. The K d* of phage clones against their target was assessed by the ELISA (enzyme-linked immunosorbent assay) method, using a range of phage dilutions incubated with the specific target.
ELISA plates were treated overnight with the target solution (human TNF-α, 0.01 mg/mL, at 4°C). The next day, the target solution was replaced by the blocking solution as described above. Plates were then incubated for 2 h at 37°C with serial phage dilutions (6.5 × 10^−11 – 3.3 × 10^−8 M) prepared in PBS containing 0.3% Tween 20. After rinsing the plate 6 times with the same buffer, phages were detected with a peroxidase-conjugated anti-M13 monoclonal antibody (Amersham Pharmacia Biotech Benelux, Roosendaal, The Netherlands) diluted 1 : 5000 in the blocking buffer. The peroxidase detection was performed using 2,2′-azino-bis[3-ethylbenztiazoline-6-sulfonic acid, diammonium salt] (ABTS, Sigma-Aldrich; 22 mg in 100 mL of 50 mM sodium citrate, pH 4.0) supplemented with 0.05% H2O2. After 30–60 min of incubation at room temperature, the OD405 values were measured on a microplate reader (Stat-Fax-2100, Awareness Technology Inc., Fisher Bioblock Scientific, Tournai, Belgium) for K d* evaluation.

Row | Substance | Staining of healthy liver sections (TNF-α) | Interaction with the PFBB coated plate [1] | IC50 (human TNF-α [2]) [nM] | IC50 Ab anti-TNF-α/Kd clone ratio (human TNF-α [2]) | Kd BSA/Kd TNF-α ratio (human TNF-α [3]) | Staining of liver sections of ConA-treated mice (TNF-α; C57BL/6 mice, ConA 20 mg/Kg, sacrificed 2 hours after injection)
1 | (C-)PATLTSL(-C) (disulfide) [Clone 2C, biotinylated cyclic form of the PATLTSL peptide (peptide 2)] | did not show such a staining | only a weak interaction |  |  |  | 
2 | C-GSKTQAP-C (disulfide) [Clone C2-R3, phage clone 2 from biopanning round 3 displaying cyclic heptapeptide C-GSKTQAP-C] |  |  | 112 | 1087 | 6 × 10^6 | 
3 | C-NNPLKSL-C (disulfide) [Clone C47-R4, phage clone 47 from round 4 displaying cyclic heptapeptide C-NNPLKSL-C] |  |  |  |  | 0.02 | 
4 | C-PATLTSL-C (disulfide) [Clone C30-R3, phage clone 30 from round 3 displaying cyclic heptapeptide C-PATLTSL-C] |  |  | 127 | 6195 | 4.2 × 10^6 | 
5 | PATLTSL [Clone 2L, biotinylated linear form of the PATLTSL peptide (peptide 2)] |  | only a weak interaction |  |  |  | did not yield such a result
